In article PMC7539012, “Hyperphosphorylated tau aggregation and cytotoxicity modulators screen identified prescription drugs linked to Alzheimer's disease and cognitive functions” (Scientific Reports, 2020):
Counter-ions that a name gives are not always drawn. Where a SMILES comes first, the peptide text is derived from it. [ ]: non-standard residue; d: D form. pGlu = O=C1CC[C@@H](C(=O)O)N1; Thz = O=C(O)[C@@H]1CSCN1

System: T1, 1N4R p-tau
T1 construct: made in house; host or cells: E. coli (PIMAX system)
Assay: p-tau aggregation modulator screen of 1280-compound library (ThS fluorescence net change over 16 h);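 on ThS net change: 30 µM compound with 6 µM p-tau over 16 h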
Type: biochemical
Set-up: key to PTAI>2SD: *: PTAI>2SD
Conditions: not given

**Q.** For `C/C(=C(/CCO)SSCC1CCCO1)N(C=O)Cc1cnc(C)nc1N.Cl` (stereo not shown) [Fursultiamine Hydrochloride], which ThS net change is on record?
**A.** 360

**Q.** For `Cc1cc(C(C)(C)C)cc(C)c1CC1=NCCN1` [Xylometazoline hydrochloride], which ThS net change is on record?
**A.** 295

**Q.** With `CCN(CC)CCOC(=O)C1(c2ccc([N+](=O)[O-])cc2)CCCC1.Cl` [Nitrocaramiphen hydrochloride] as the compound, how does the ThS net change read?
**A.** 435

**Q.** `C[C@]12CC[C@H](O)C[C@@H]1CC[C@@H]1[C@@H]2CC[C@]2(C)C(=O)CC[C@@H]12` [Epiandrosterone] was tested. Which ThS net change did it give?
**A.** 440

**Q.** With `COc1ccc(CCN(C)CCCC(C#N)(c2ccc(OC)c(OC)c2)C(C)C)cc1OC` (stereo not shown) [Verapamil hydrochloride] as the compound, how does the ThS net change read?
**A.** 325

**Q.** `CCN(C)C(=O)Oc1cccc([C@H](C)N(C)C)c1` [Rivastigmine] was tested. Which ThS net change did it give?
**A.** 462

**Q.** How did the ThS net change turn out when `C[C@]12CCC(=O)C(O)=C1CC[C@@H]1[C@@H]2CC[C@]2(C)C(=O)CC[C@@H]12` [Formestane] was run?
**A.** 413

**Q.** With `CC(COc1ccccc1)N(CCCl)Cc1ccccc1` (stereo not shown) [Phenoxybenzamine hydrochloride] as the compound, how does the ThS net change read?
**A.** 560

Same assay, conditions: 1280-compound library screen; ThS fluorescence net change over 16 h

**Q.** For `Nc1nc2c(ncn2CCC(CO)CO)c(=O)[nH]1` [Penciclovir], which ThS net change is on record?
**A.** 397

**Q.** `N=C(N)NCc1cccc(I)c1.O=S(=O)(O)O` [Iobenguane sulfate] was tested. Which ThS net change did it give?
**A.** 411

**Q.** `CC[N+](C)(CC)CCOC(=O)C1c2ccccc2Oc2ccccc21` [Methantheline bromide] was tested. Which ThS net change did it give?
**A.** 400

**Q.** How did the ThS net change turn out when `Cc1cc(O)c(C(=O)N[C@@H](C(=O)N[C@@H]2C(=O)N3C(C(=O)O)=C(CSc4nnnn4C)CS[C@H]23)c2ccc(O)cc2)cn1` [Cefpiramide] was run?
**A.** 407

**Q.** Which ThS net change does the source give for `CC(C)Cc1ccc([C@H](C)C(=O)O)cc1` [S-(+)-ibuprofen] here?
**A.** 406

**Q.** How did the ThS net change turn out when `Cc1cc(C(=O)NNCc2ccccc2)no1` [Isocarboxazid] was run?
**A.** 400

**Q.** How did the ThS net change turn out when `Cl.Clc1ccc(C(OCCN2CCCCC2)c2ccccc2)cc1` (stereo not shown) [Cloperastine hydrochloride] was run?
**A.** 386

**Q.** Which ThS net change does the source give for `CN(C)CCC(c1ccc(Br)cc1)c1ccccn1` (stereo not shown) [Brompheniramine maleate] here?
**A.** 379

**Q.** `Nc1ccn([C@@H]2O[C@H](CO)[C@@H](O)[C@@H]2O)c(=O)n1` [Cytarabine] was tested. Which ThS net change did it give?
**A.** 392

**Q.** Which ThS net change does the source give for `C[N+]1(C)CCC(OC(=O)C(O)(c2ccccc2)C2CCCC2)C1` (stereo not shown) [Glycopyrrolate] here?
**A.** 401

**Q.** `COc1ccc(Cl)cc1C(=O)NCCc1ccc(S(=O)(=O)NC(=O)NC2CCCCC2)cc1` [Glibenclamide] was tested. Which ThS net change did it give?
**A.** 391

**Q.** For `Cl.O=C(O)/C=C/c1ccc(Cn2ccnc2)cc1` [Ozagrel hydrochloride], which ThS net change is on record?
**A.** 389

**Q.** Which ThS net change does the source give for `CCCCOc1ccc(C(=O)CCN2CCCCC2)cc1` [Dyclonine hydrochloride] here?
**A.** 406

**Q.** `CCn1cc(C(=O)O)c(=O)c2cc(F)c(N3CCNC(C)C3)c(F)c21` (stereo not shown) [Lomefloxacin hydrochloride] was tested. Which ThS net change did it give?
**A.** 390

**Q.** How did the ThS net change turn out when `Nc1cc(C(Cl)=C(Cl)Cl)c(S(N)(=O)=O)cc1S(N)(=O)=O` [Clorsulon] was run?
**A.** 393

Same assay, conditions: 1280-compound library screen; […]

**Q.** For `C#C[C@]1(O)CC[C@H]2[C@@H]3[C@H](C)CC4=C(CCC(=O)C4)[C@H]3CC[C@@]21C` [Tibolone], which ThS net change is on record?
**A.** 381

Same assay, conditions: flag: p-tau aggregation inhibitor, ThS net change more than 2 SD from mean

**Q.** Which “PTAI>2SD” value does the source give for `CO[C@H]1/C=C/O[C@@]2(C)Oc3c(C)c(O)c4c(O)c(c(/C=N/N5CCN(C)CC5)c(O)c4c3C2=O)NC(=O)/C(C)=C\C=C\[C@H](C)[C@H](O)[C@@H](C)[C@@H](O)[C@@H](C)[C@H](OC(C)=O)[C@@H]1C` [Rifampicin] here?
**A.** *

Same assay, conditions: library screen, ThS fluorescence net change over 16 h with p-tau

**Q.** For `CO[C@H]1/C=C/O[C@@]2(C)Oc3c(C)c(O)c4c(O)c(c(/C=N/N5CCN(C)CC5)c(O)c4c3C2=O)NC(=O)/C(C)=C\C=C\[C@H](C)[C@H](O)[C@@H](C)[C@@H](O)[C@@H](C)[C@H](OC(C)=O)[C@@H]1C` [Rifampicin], which ThS net change is on record?
**A.** 158

**Q.** With `CN(C)CCCN1c2ccccc2Sc2ccccc21` [Promazine hydrochloride] as the compound, how does the ThS net change read?
**A.** 306

**Q.** How did the ThS net change turn out when `Cl.Clc1ccc(Cn2c(CN3CCCC3)nc3ccccc32)cc1` [Clemizole hydrochloride] was run?
**A.** 325

**Q.** Which ThS net change does the source give for `CN1CCN(CC(=O)N2c3ccccc3C(=O)Nc3cccnc32)CC1` [Pirenzepine dihydrochloride] here?
**A.** 322

**Q.** `CN1CCOC(c2ccccc2)c2ccccc2C1` (stereo not shown) [Nefopam hydrochloride] was tested. Which ThS net change did it give?
**A.** 324

Same assay, conditions: p-tau aggregation modulator screen of 1280-compound library; ThS fluorescence net change

**Q.** `O=C1O[C@H]([C@@H](O)CO)C(O)=C1O` [Ascorbic acid] was tested. Which ThS net change did it give?
**A.** 361

**Q.** How did the ThS net change turn out when `CC(C)NCC(O)COc1ccc(CCOCC2CC2)cc1` (stereo not shown) [Betaxolol hydrochloride] was run?
**A.** 373

**Q.** For `Cc1cc(NS(=O)(=O)c2ccc(N)cc2)no1` [Sulfamethoxazole], which ThS net change is on record?
**A.** 376

**Q.** With `CN(C)CCC=C1c2ccccc2CCc2ccccc21.Cl` [Amitryptiline hydrochloride] as the compound, how does the ThS net change read?
**A.** 362

**Q.** For `CC[C@H]1OC(=O)C[C@@H](O)[C@H](C)[C@@H](O[C@@H]2O[C@H](C)[C@@H](O[C@H]3C[C@@](C)(O)[C@@H](O)[C@H](C)O3)[C@H](N(C)C)[C@H]2O)[C@@H](CC=O)C[C@@H](C)C(=O)/C=C/C(C)=C/[C@@H]1CO[C@@H]1O[C@H](C)[C@@H](O)[C@@H](OC)[C@H]1OC` [Tylosin], which ThS net change is on record?
**A.** 372

**Q.** With `CN/C(=N/CCSCc1nc[nH]c1C)NC#N` [Cimetidine] as the compound, how does the ThS net change read?
**A.** 356

**Q.** How did the ThS net change turn out when `CC(C)(C)NCC(O)COc1cccc2c1CCC(=O)N2` (stereo not shown) [Carteolol hydrochloride] was run?
**A.** 377

**Q.** Which ThS net change does the source give for `CCN(CCCc1ccccc1)CCCc1ccccc1.O=C(O)CC(O)(CC(=O)O)C(=O)O` [Alverine citrate salt] here?
**A.** 374

**Q.** `Cc1ccc(/C(=C\CN2CCCC2)c2ccccn2)cc1.Cl` [Triprolidine hydrochloride] was tested. Which ThS net change did it give?
**A.** 360

**Q.** For `CC(C)NC[C@@H](O)c1ccc(O)c(O)c1.O=C(O)C(O)C(O)C(=O)O` [(+)-Isoproterenol (+)-bitartrate salt], which ThS net change is on record?
**A.** 345

**Q.** Which ThS net change does the source give for `CN(C)CCCO[C@@H]1[C@H]2OC(C)(C)O[C@H]2O[C@@H]1[C@H](O)CO` [Amiprilose hydrochloride] here?
**A.** 367

**Q.** How did the ThS net change turn out when `[H]/N=C(/N)N/C(=N/[H])NCCc1ccccc1` [Phenformin hydrochloride] was run?
**A.** 369

Same assay, conditions: p-tau aggregation modulator screen of 1280-compound library; […]

**Q.** `CN(CCCCCCCCCCN(C)C(=O)Oc1cccc([N+](C)(C)C)c1)C(=O)Oc1cccc([N+](C)(C)C)c1` [Demecarium bromide] was tested. Which ThS net change did it give?
**A.** 377

Same assay, conditions: p-tau aggregation modulator screen of the compound library, ThS fluorescence net change

**Q.** How did the ThS net change turn out when `Cc1cn([C@H]2C=C[C@@H](CO)O2)c(=O)[nH]c1=O` [Stavudine] was run?
**A.** 428

**Q.** Which ThS net change does the source give for `C[C@H](Cc1cc2c(c(C(N)=O)c1)N(CCCO)CC2)NCCOc1ccccc1OCC(F)(F)F` [Silodosin] here?
**A.** 478

**Q.** How did the ThS net change turn out when `CCCc1nc2c(C)cc(-c3nc4ccccc4n3C)cc2n1Cc1ccc(-c2ccccc2C(=O)O)cc1` [Telmisartan] was run?
**A.** 454

**Q.** Which ThS net change does the source give for `N=C(N)c1ccc(OCCCCCOc2ccc(C(=N)N)cc2)cc1` [Pentamidine isethionate] here?
**A.** 479

**Q.** Which ThS net change does the source give for `CC(=O)N[C@@H](CS)C(=O)O` [Acetylcysteine] here?
**A.** 423

**Q.** With `CCC(Cc1c(I)cc(I)c(N)c1I)C(=O)O` (stereo not shown) [Iopanoic acid] as the compound, how does the ThS net change read?
**A.** 464

**Q.** How did the ThS net change turn out when `O=C1CC[C@@H](C(=O)N2CSC[C@H]2C(=O)O)N1` [Pidotimod] ([pGlu]-[Thz]-OH) was run?
**A.** 441

**Q.** Which ThS net change does the source give for `Cl.Cl.Fc1ccc(C(OCCN2CCN(CCCc3ccccc3)CC2)c2ccc(F)cc2)cc1` [GBR 12909 dihydrochloride] here?
**A.** 515

**Q.** For `CC(=O)[C@H]1CC[C@H]2[C@@H]3CC=C4C[C@@H](O)CC[C@]4(C)[C@H]3CC[C@]12C` [Pregnenolone], which ThS net change is on record?
**A.** 482

**Q.** With `CO[C@@]1(NC(=O)CSCC#N)C(=O)N2C(C(=O)O)=C(CSc3nnnn3C)CS[C@@H]21` [Cefmetazole sodium salt] as the compound, how does the ThS net change read?
**A.** 468

**Q.** How did the ThS net change turn out when `CCCCc1nc(Cl)c(CO)n1Cc1ccc(-c2ccccc2-c2nn[nH]n2)cc1` [Losartan] was run?
**A.** 468

**Q.** Which ThS net change does the source give for `CCOC(=O)C1=C(C)NC(C)=C(C(=O)OCC)C1c1ccccc1/C=C/C(=O)OC(C)(C)C` [Lacidipine] here?
**A.** 452
